In patent US20220313620A1, “COMPOSITION FOR PREVENTING AND TREATING TAUOPATHIES” (SERVICIO ANDALUZ DE SALUD, priority 2019, published 2022):

Tested on: mTOR
Experiment: Hypothalamic mTOR phosphorylation (western blot) after acute oral gavage
Assay type: in vivo
Details: oral 500 mg/kg, adult male Wistar rats, hypothalamus, FIG. 3F
Protocol: After 18 hours of fasting, D-Pinitol dissolved in water was administered acutely by gavage (100 mg/kg in a first study, and 500 mg/kg in a subsequent study). After administration, the animals were sacrificed in groups at different times (being time 0 the administration of D-Pinitol). For the first study (100 mg/kg), groups of animals were sacrificed at times: 10, 20, 30, 60, 120, 240 and 360 minutes after administration; for the second study (500 mg/kg), animals were sacrificed at times: 60, 120 and 240 minutes after administration. As a control group, a group was administered only with water (by gavage). Animals were anesthetized with sodium pentobarbital (50 mg/Kg, i.p.), blood, brain and liver samples were collected. Blood was centrifuged (2100 g for 8 min, 4° C.) and the plasma kept for further analysis. Liver and brain samples were flash-frozen in liquid N2, then stored at −80° C. until further analysis. Brain extract. […] The expression of protein including mTOR (289 kDa) and Adaptin (100 kDa) were analysed by western blot. […] Bands were quantified by densitometric analysis using ImageJ software (Rasband, WS, Image), US National Institutes of Health, Bethesda, Md., USA).

## COC1[C@@H](O)[C@@H](O)C(O)[C@H](O)[C@H]1O (stereo partly drawn) [DPIN, (1S,2S,4S,5R)-6-methoxycyclohexane-1,2,3,4,5-pentol]
  hypothalamic mTOR signaling through its phosphorylation: activation
